Results taken from publication PMC7217483, “Early correction of synaptic long-term depression improves abnormal anxiety-like behavior in adult GluN2B-C456Y-mutant mice” (PLoS Biology, 2020).

Experiments:
GluN2B [1] = target: T1, GluN2B (Mus musculus, UniProt P35439+Q01097, Q01097:C456Y, species not given); experiment: potentiation of recombinant NMDAR currents in Xenopus oocytes; type: cell-based
T1 construct: gene Grin2b; recombinant diheteromeric GluN1/GluN2B-C456Y receptor; with GluN1

GluN2B [2] = target: T2, GluN2B (Mus musculus, UniProt P35439+Q01097); experiment: as above; type: cell-based
T2 construct: gene Grin2b; recombinant diheteromeric GluN1/GluN2B receptor; with GluN1
T2 sequence (Q01097 27-1482, other chains not shown): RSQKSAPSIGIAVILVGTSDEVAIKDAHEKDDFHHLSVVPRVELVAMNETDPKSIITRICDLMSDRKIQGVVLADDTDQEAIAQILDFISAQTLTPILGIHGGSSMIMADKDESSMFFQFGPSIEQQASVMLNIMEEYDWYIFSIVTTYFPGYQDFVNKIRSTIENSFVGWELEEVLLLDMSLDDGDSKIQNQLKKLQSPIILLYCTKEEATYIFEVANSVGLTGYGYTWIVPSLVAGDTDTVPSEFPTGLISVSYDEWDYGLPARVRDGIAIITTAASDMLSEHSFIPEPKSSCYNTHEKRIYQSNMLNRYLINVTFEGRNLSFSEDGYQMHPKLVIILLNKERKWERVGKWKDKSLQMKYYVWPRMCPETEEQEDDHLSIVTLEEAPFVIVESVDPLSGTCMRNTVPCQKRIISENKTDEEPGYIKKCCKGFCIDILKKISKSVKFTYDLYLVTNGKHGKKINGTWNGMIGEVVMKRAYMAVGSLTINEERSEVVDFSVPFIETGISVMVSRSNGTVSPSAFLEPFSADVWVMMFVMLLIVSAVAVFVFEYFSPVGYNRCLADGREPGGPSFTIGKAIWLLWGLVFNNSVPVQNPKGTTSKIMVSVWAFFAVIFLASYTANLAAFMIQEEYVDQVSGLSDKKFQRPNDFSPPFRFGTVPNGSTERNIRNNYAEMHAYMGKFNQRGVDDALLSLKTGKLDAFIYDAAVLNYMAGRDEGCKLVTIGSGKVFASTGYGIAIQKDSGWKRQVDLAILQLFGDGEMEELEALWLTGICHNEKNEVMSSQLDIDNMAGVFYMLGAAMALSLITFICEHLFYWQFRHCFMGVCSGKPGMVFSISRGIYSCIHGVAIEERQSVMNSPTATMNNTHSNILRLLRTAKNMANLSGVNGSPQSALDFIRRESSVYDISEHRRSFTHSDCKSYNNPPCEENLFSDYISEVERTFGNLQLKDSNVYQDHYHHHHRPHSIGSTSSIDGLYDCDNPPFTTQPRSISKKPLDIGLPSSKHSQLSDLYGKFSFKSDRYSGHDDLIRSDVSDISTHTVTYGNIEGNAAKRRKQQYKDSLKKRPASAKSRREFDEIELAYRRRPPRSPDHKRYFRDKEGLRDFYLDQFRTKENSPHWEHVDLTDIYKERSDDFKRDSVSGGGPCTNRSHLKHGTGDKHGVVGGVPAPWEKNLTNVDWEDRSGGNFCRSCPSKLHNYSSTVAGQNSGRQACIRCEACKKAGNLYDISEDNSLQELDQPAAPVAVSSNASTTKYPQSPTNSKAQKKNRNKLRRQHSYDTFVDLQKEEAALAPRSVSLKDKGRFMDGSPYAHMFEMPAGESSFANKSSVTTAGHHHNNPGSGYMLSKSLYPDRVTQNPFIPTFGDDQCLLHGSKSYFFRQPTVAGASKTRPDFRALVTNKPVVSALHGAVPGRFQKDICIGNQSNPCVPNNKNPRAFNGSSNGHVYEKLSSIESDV

T1 sequence (Q01097 27-1482 C456Y, other chains not shown): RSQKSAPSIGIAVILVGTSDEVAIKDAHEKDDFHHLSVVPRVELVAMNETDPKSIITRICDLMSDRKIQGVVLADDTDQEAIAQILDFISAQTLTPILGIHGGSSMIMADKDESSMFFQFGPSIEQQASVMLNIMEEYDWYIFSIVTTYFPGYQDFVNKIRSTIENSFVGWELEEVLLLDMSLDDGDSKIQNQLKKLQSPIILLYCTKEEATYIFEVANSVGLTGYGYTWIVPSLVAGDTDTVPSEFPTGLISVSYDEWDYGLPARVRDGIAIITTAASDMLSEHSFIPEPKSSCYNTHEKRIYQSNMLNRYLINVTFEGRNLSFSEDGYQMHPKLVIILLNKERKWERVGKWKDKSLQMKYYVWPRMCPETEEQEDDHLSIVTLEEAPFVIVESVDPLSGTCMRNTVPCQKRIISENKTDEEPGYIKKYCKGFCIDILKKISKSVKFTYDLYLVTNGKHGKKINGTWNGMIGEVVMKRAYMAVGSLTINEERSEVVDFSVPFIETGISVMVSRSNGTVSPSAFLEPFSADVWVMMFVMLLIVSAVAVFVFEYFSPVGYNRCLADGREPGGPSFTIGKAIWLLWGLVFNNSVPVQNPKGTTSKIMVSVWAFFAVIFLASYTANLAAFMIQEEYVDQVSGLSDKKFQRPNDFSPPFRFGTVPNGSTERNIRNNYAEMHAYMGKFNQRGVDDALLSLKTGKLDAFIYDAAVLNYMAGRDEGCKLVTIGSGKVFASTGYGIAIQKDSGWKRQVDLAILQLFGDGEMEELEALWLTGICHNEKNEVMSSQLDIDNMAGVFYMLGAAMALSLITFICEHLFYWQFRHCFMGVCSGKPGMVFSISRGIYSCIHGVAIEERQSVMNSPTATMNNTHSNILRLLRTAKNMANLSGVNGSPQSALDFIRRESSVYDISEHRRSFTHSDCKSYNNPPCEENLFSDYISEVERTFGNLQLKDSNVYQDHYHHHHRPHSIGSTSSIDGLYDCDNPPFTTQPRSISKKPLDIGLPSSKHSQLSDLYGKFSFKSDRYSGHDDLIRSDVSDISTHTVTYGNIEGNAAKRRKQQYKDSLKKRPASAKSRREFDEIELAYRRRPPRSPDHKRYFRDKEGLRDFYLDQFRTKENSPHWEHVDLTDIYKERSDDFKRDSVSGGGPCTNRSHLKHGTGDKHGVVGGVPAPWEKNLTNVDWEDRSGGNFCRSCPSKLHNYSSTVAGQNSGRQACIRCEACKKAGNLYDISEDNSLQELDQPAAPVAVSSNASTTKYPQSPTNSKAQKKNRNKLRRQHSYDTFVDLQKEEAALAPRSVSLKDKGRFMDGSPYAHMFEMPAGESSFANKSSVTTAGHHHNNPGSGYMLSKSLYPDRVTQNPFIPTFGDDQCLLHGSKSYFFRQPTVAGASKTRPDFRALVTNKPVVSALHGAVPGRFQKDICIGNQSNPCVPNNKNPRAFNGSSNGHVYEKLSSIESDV

In the case of NCCCNCCCCNCCCN [spermine], the “potentiation of recombinant NMDAR currents in Xenopus oocytes” value (GluN2B [1]) is reported as 2.83 spermine potentiation and the “potentiation of recombinant NMDAR currents in Xenopus oocytes” value (GluN2B [2]) is reported as 9.45 spermine potentiation.
